Counter-ions that a name gives are not always drawn.
test system: skin-fascia explants; experiment: Scar-in-a-dish (SCAD) ex vivo skin-fascia explant assay, screening of Prestwick chemical library; assay type: cell-based, mouse; conditions: molecules of table 1 named as inhibitors of ECM movement
From the text: Post born Day 0 (P0) neonates of C57BL/6J wild type mouse were first sacrificed by decapitation. Then dorsal back skin was isolated to make 2 mm full thickness biopsies (0 2 mm, Stiefel) that included the epidermis, dermis and deep subcutaneous fascia layers. The whole skin tissue explant system is termed as scar-in-a-dish (SCAD) assay (Patent Application no. PLA17A13). The SCAD tissue was maintained in DMEM/F12 cell culture medium (Life Technologies) supplemented with 10% FBS (Life Technologies), 1% non-essential amino acid (Thermo Fisher), 1% Glutamax (Thermo Fisher), 1% penicillin and streptomycin (Thermo Fisher) in a 37° C. incubator supplied with […] and 5% CO2. Medium was changed every other day until day 5 when SCADs were collected and fixed for histology analysis. To be noticed, the excised skin was submerged […] in culture media, which confined the scar-prone fibroblasts to the explant and discouraged their adherence to the tissue culture plate.
The PCL provides an additional advantage as all chemicals are of stable physicochemical properties, show a high range of chemical diversity, and are with known bioavailability and safety data in humans. All these information helps to reduce the probability of screening low-quality hits and save the costs of preliminary screening process.
In order to accommodate to medium scale screening approach, the Inventors adapted the SCAD explant system into 96-well plate (Falcon) formats, with each well contained one biopsy. […] Plate and liquid handling were performed using a high-throughput screening platform system composed of a Sciclone G3 Liquid Handler from PerkinElmer (Waltham, Mass., USA). On Day 0 tissues were treated either with the respective compound (1 mM stock solution) dissolved in 100% dimethyl sulfoxide (DMSO, Carl Roth) or DMSO alone. 0.5 μl of compounds/DMSO were transferred with a 96-array head to 200 μl DMEM/F12 medium per well to keep the final DMSO concentrations at […]. Tissues were then incubated (37° C.; 5% CO2) for 72 h prior to a second round of compound treatment, which was performed by exchanging cell culture medium per well and transferring […] of compounds/DMSO into the fresh medium. After an incubation time of another 48 h (37° C.; 5% CO2) the tissues were harvested and fixed for histological processing and imaging.
Briefly, the Inventors excised 2-mm full thickness skin biopsies that included epidermis, dermis, and deep subcutaneous fascia layers from mouse backs (see Methods). Skin-fascia explants were submerged fascia-side up in culture media, to confine scar-prone fibroblasts to the explant and discourage their adherence to the tissue culture plate.
The Prestwick library has selected a diverse array of chemicals with strong physicochemical properties, with known bioavailability and clinical safety data. The library is an ideal place to start screening as it covers all major therapeutic chemical classes such as central nervous system, cardiovascular system, metabolism, and infectious diseases.

| Structure (SMILES) | phenotype as inhibitor of ECM movement |
| --- | --- |
| CN1CCCC(n2nc(Cc3ccc(Cl)cc3)c3ccccc3c2=O)CC1 (centres unmarked) [Azelastine HCl] | anti-fibrotic phenotype |
| CC(C)/N=c1\cc2n(-c3ccc(Cl)cc3)c3ccccc3nc-2cc1Nc1ccc(Cl)cc1 [Clofazimine] | anti-fibrotic phenotype |
| CCC(=O)O[C@]1(C(=O)SCF)[C@H](C)C[C@H]2[C@@H]3C[C@H](F)C4=CC(=O)C=C[C@]4(C)[C@@]3(F)[C@@H](O)C[C@@]21C [Fluticasone propionate] | anti-fibrotic phenotype |
| CC1(C)S[C@@H]2[C@H](NC(=O)Cc3ccccc3)C(=O)N2[C@H]1C(=O)O.CC1(C)S[C@@H]2[C@H](NC(=O)Cc3ccccc3)C(=O)N2[C@H]1C(=O)O.c1ccc(CNCCNCc2ccccc2)cc1 [Benzathine benzylpenicillin] | anti-fibrotic phenotype |
| [H]/N=C(/NCCCCC)N/N=C/c1c[nH]c2ccc(OC)cc12 [Tegaserod maleate] | anti-fibrotic phenotype |
| CCN1CC(CCN2CCOCC2)C(c2ccccc2)(c2ccccc2)C1=O (centres unmarked) [Doxapram hydrochloride] | anti-fibrotic phenotype |
| C[N+](C)(CCOc1ccccc1)Cc1ccccc1.O=C([O-])c1cc2ccccc2cc1O [Bephenium hydroxynaphthoate] | anti-fibrotic phenotype |
| O=c1[nH]c2ccccc2n1CCCN1CCC(n2c(=O)[nH]c3cc(Cl)ccc32)CC1 [Domperidone] | anti-fibrotic phenotype |
| Clc1cc(Cl)c(OCC#CI)cc1Cl [Haloprogin] | anti-fibrotic phenotype |
| CCN(CC)CCc1nc(-c2ccccc2)no1.O=C(O)CC(O)(CC(=O)O)C(=O)O [Oxalamine citrate salt] | anti-fibrotic phenotype |
| CC(C)N(CCC(C(N)=O)(c1ccccc1)c1ccccn1)C(C)C (centres unmarked) [Disopyramide] | anti-fibrotic phenotype |
| C[C@H]1NC(=O)NC1=O [Methylhydantoin-5-(D)] | anti-fibrotic phenotype |
| CC(O)(P(=O)(O)O)P(=O)(O)O [Etidronic acid, disodium salt] | anti-fibrotic phenotype |
| Nc1ccc(S(=O)(=O)Nc2ccnn2-c2ccccc2)cc1 [Sulfaphenazole] | anti-fibrotic phenotype |
| CN1CCOC(c2ccccc2)c2ccccc2C1 (centres unmarked) [Nefopam hydrochloride] | anti-fibrotic phenotype |
| CC(=O)[C@H]1CC[C@H]2[C@@H]3C[C@H](C)C4=CC(=O)CC[C@]4(C)[C@H]3[C@@H](O)C[C@]12C [Medrysone] | anti-fibrotic phenotype |
| CCC(C)(C)c1ccc(CC(C)CN2C[C@@H](C)O[C@@H](C)C2)cc1 (some centres unmarked) [Amorolfine hydrochloride] | anti-fibrotic phenotype |
| CCN1CCN(C(=O)N[C@@H](C(=O)N[C@@H]2C(=O)N3[C@@H]2SC(C)(C)[C@@H]3C(=O)O)c2ccccc2)C(=O)C1=O [Piperacillin sodium salt] | anti-fibrotic phenotype |
| CCCOc1cc(N)ccc1C(=O)OCCN(CC)CC [Propoxycaine hydrochloride] | anti-fibrotic phenotype |

| Structure (SMILES) | phenotype as inhibitor of ECM movement |
| --- | --- |
| O=C(c1ccccc1)c1ccc2n1CCC2C(=O)O (centres unmarked) [Ketorolac tromethamine] | anti-fibrotic phenotype |
| COc1cccc2c1C(=O)c1c(O)c3c(c(O)c1C2=O)C[C@@](O)(C(=O)CO)C[C@@H]3O[C@H]1C[C@H](N)[C@H](O)[C@H](C)O1 [Doxorubicin hydrochloride] | anti-fibrotic phenotype |
| NC(N)=Nc1nc(CSCCC(N)=NS(N)(=O)=O)cs1 [Famotidine] | anti-fibrotic phenotype |
| NC(=O)c1cnccn1 [Pyrazinamide] | anti-fibrotic phenotype |
| C#C[C@]1(O)CC[C@H]2[C@@H]3CCC4=C(CCC(=O)C4)[C@H]3CC[C@@]21C [Norethynodrel] | anti-fibrotic phenotype |
| COc1ccc(NS(=O)(=O)c2ccc(N)cc2)nn1 [Sulfamethoxypyridazine] | anti-fibrotic phenotype |
| CCCCN(CCCC)CCC(O)c1cc2c(Cl)cc(Cl)cc2c2cc(C(F)(F)F)ccc12 (centres unmarked) [Halofantrine hydrochloride] | anti-fibrotic phenotype |
| CC(=O)N(CC(O)CN(C(C)=O)c1c(I)c(C(=O)NCC(O)CO)c(I)c(C(=O)NCC(O)CO)c1I)c1c(I)c(C(=O)NCC(O)CO)c(I)c(C(=O)NCC(O)CO)c1I (centres unmarked) [Iodixanol, lodixanol] | anti-fibrotic phenotype |
| C=C1/C(=C\C=C2/CCC[C@]3(C)[C@@H]([C@H](C)CCCC(C)C)CC[C@@H]23)C[C@@H](O)C[C@@H]1O [Alfacalcidol] | anti-fibrotic phenotype |
| CC[C@H](C)C(=O)O[C@H]1CCC=C2C=C[C@H](C)[C@H](CC[C@@H]3C[C@@H](O)CC(=O)O3)[C@H]21 [Mevastatin] | anti-fibrotic phenotype |
| CC(C)(C)C(=O)OCOC(=O)[C@@H]1N2C(=O)[C@@H](NC(=O)[C@H](N)c3ccccc3)[C@H]2SC1(C)C [Pivampicillin] | anti-fibrotic phenotype |
| COc1ccc2c(c1)N(C[C@H](C)CN(C)C)c1ccccc1S2.O=C(O)/C=C\C(=O)O [Methotrimeprazine maleat salt] | anti-fibrotic phenotype |
| CC1(C)O[C@@H]2C[C@H]3[C@@H]4C[C@H](F)C5=CC(=O)C=C[C@]5(C)[C@@]4(F)[C@@H](O)C[C@]3(C)[C@]2(C(=O)CO)O1 [Fluocinolone acetonide] | anti-fibrotic phenotype |
| Nc1ccc(S(=O)(=O)Nc2cnc3ccccc3n2)cc1 [Sulfaquinoxaline sodium salt] | anti-fibrotic phenotype |
| CC[C@]12CCCN3CCc4c(n(c5ccccc45)C(=O)C1)[C@@H]32 [Eburnamonine (−)] | anti-fibrotic phenotype |
| CCOc1cc(CC(=O)N[C@@H](CC(C)C)c2ccccc2N2CCCCC2)ccc1C(=O)O [Repaglinide] | anti-fibrotic phenotype |
| C[C@@H]1C[C@H]2[C@@H]3C[C@H](F)C4=CC(=O)C=C[C@]4(C)[C@@]3(F)[C@@H](O)C[C@]2(C)[C@@]1(O)C(=O)COC(=O)C(C)(C)C [Flumethasone pivalate] | anti-fibrotic phenotype |
| O=C1CC[C@@]2(O)[C@H]3Cc4ccc(O)c5c4[C@@]2(CCN3CC2CC2)[C@H]1O5 [Naltrexone hydrochloride dehydrate, Naltrexone hydrochloride dihydrate] | anti-fibrotic phenotype |
| C[C@H](N)[C@H](O)c1ccc(O)c(O)c1 [Levonordefrin] | anti-fibrotic phenotype |

test system: liver; experiment: ECM (matrix) movement into liver wounds after electroporation injury, NHS-FITC matrix labelling; assay type: in vivo, mouse; conditions: filter paper with 100 nM solution on liver surface for 5 minutes, absence of wounds

| Structure (SMILES) | recruitment / deposition of fluid matrix after local application |
| --- | --- |
| CCCCC[C@H](O)/C=C/C=C\C=C\C=C\[C@@H](O)[C@@H](O)CCCC(=O)O [Lipoxin A4] | led to recruitment of fluid matrix |
| CCCCC/C=C\C[C@@H](O)/C=C/C=C/C=C\[C@@H](O)CCCC(=O)O [LTB4] | forms new deposits of matrix |

same assay, conditions: filter paper with 100 nM solution on liver surface for 5 minutes, absence of wounds; listed as Lipoxin

| Structure (SMILES) | recruitment / deposition of fluid matrix after local application |
| --- | --- |
| CCCCC[C@H](O)/C=C/C=C\C=C\C=C\[C@@H](O)[C@@H](O)CCCC(=O)O [Lipoxin A4] | can be directed with local application |

Reference: patent US20220334101A1, “MODULATING EXTRACELLULAR MATRIX MOVEMENT” (Helmholtz Zentrum Muenchen - Deutsches Forschungszentrum …, priority 2019, published 2022)
